{"source": "ChEMBL document CHEMBL3638434", "about": "“1H-pyrrolo[2,3 b]-pyridine derivatives” (2014)", "biological_target": "T1, 3-phosphoinositide-dependent protein kinase 1 (Homo sapiens, UniProt O15530)", "T1 sequence (O15530 whole entry)": "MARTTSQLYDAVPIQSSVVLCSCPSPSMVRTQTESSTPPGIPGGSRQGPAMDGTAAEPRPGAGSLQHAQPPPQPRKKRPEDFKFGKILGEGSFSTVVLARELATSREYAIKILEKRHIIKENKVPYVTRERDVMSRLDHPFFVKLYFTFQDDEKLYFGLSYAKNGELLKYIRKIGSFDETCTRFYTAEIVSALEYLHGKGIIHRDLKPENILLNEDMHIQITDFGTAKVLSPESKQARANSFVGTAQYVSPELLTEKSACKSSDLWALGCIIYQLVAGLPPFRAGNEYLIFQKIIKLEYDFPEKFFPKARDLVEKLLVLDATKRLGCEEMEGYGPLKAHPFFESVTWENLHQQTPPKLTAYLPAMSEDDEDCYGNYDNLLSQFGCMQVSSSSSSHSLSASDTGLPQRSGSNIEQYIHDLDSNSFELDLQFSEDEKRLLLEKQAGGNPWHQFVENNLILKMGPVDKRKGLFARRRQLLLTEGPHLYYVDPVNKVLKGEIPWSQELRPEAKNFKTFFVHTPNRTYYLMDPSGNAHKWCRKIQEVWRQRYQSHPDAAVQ", "experiment": "Inhibition Assay: The compound inhibits the target protein in the enzymatic PDK1 inhibition assay.", "data": [{"compound": "Cn1cc(-c2cnc3[nH]cc(-c4cc(N(CCC#N)c5ccccc5)nc(N)n4)c3c2)cn1", "values": [{"measurement": "IC50", "result": 7.9, "unit": "nM"}]}, {"compound": "CN(c1cccc(F)c1)c1cc(-c2c[nH]c3ncc(-c4cnn(C)c4)cc23)ncn1", "values": [{"measurement": "IC50", "result": 190, "unit": "nM"}]}]}
